Read-outs that look alike come from different tables or passages of the source.

The source of these data is patent publication US20080038276A1, “INHIBITORS OF PLASMA KALLIKREIN” (Activesite Pharmaceuticals, Inc., priority 2006, published 2008).

One test deals with FXIa (Homo sapiens, UniProt P03951). The test can be described thus: Specificity profile: amidolytic activity with synthetic substrate. The class given is biochemical. Conditions: highest concentration tested 10 μM. The method, then:
(§1) The highest concentration of either compound tested was 10 μM.

For another test, the target named is T1, FXIIa (Homo sapiens, UniProt P00748).
T1 sequence (P00748 373-615 limits assumed): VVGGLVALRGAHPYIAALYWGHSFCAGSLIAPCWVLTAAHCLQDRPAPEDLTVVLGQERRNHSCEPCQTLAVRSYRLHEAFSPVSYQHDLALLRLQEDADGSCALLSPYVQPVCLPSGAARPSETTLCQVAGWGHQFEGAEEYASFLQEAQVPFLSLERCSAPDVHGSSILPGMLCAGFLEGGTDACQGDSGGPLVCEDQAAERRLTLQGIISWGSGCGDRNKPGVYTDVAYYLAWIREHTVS
The description is as above. To be noted: highest concentration tested 10 μM. Format: biochemical. The method, then: as §1

The target of another test is T2, Plasmin (Homo sapiens, UniProt P00747).
T2 construct: agents that lead to the generation of active plasmin from plasminogen
The test is described as above. The class given is biochemical. Conditions: highest concentration tested 10 μM. How it is done: as §1

For another test, the target named is Thrombin (Homo sapiens, UniProt P00734). The description is as above. Format: biochemical. Conditions: highest concentration tested 10 μM. How it is done:
as §1

The next test concerns the target FXa (Homo sapiens, UniProt P00742). The test is described as above. Format: biochemical. To be noted: highest concentration tested 10 μM. How it is done: as §1
The test system of test [1] is plasmin-activated coagulation in plasma. Put plainly: Plasmin-activated coagulation of plasma (plasmin + 6.25% Actin FS), time to coagulation. Further details: species or system human. Conditions: for prolongs time to coagulation: normal plasma, 200 nM plasmin. The method, then: In the clotting paradigm utilized in Example 3, plasma is mixed 1:1 with commercially formulated Actin FS. Thus, 50% (v/v) Actin FS is the maximum amount of activator that can be added while maintaining the amount of plasma constant at 50% of the incubation mixture. Since the clotting time in normal plasma is dependent on the amount of Actin FS present in the incubation mixture, these conditions would by definition lead to the shortest time to coagulation mediated by the intrinsic pathway in this paradigm. Lowering the amount of contact activator leads to a decrease in the amount of PK activated, thus reducing the amount of thrombin generated and slowing the time to coagulation (data not shown). Therefore, in order to determine whether addition of exogenous plasmin (mimicking a fibrinolytic setting) can shorten time to coagulation, the amount of Actin FS reagent added to the plasma (kept constant at 50% of the final incubation mixture) was lowered so as to attain 6.25% (final v/v).
This provides direct evidence that plasmin can have a thrombogenic effect when added to plasma in the presence of a small amount of contact activator.
The role for PK was established by evaluating deficiencies in PK, as well as by using two specific inhibitors of the enzymes. In order to determine whether blocking PK via a specific monoclonal antibody (MAb) would also be effective in inhibiting coagulation in either of the two paradigms described here, and thus provide additional validation for the invention, MAb 13G11, which has been previously characterized as being specific for PK (Veloso et al, (1987) Blood, 70, 1053-1062), was tested in each of the coagulation paradigms described in Examples 2 and 3. MAb 13G11 (obtained from GeneTex, San Antonio, Tex.) was added at a final concentration of 0.036 mg/ml in the 50% plasma—50% activator mix in each paradigm. This calculates to an approximately 2-fold molar excess over the amount of PK that would be present in the plasma—activator mixture, based on the literature reference of Veloso et al, (1987), Blood, 70, 1053-1062. Control samples were treated with 0.036 mg/ml of an isotype-matched control IgG1 (also obtained from GeneTex). When plasma was activated using 50% Actin FS (FIG. 5), MAb 13G11 prolonged time to coagulation by 100% (45% of the maximal effect obtained with PK-deficient plasma), and, when plasma was activated using 200 nM plasmin+6.25% Actin FS (FIG. 6), prolonged time to coagulation by 32% (40% of the maximal effect obtained with PK-deficient plasma).

The target of test [2] is T3, Human plasma kallikrein (PK) (Homo sapiens, UniProt P03952).
T3 construct: purchased Haemtech Technologies (Essex Junction, Vt.)
The test can be described thus: Inhibition of human plasma kallikrein amidolytic activity (H-D-Pro-Phe-Arg-pNA cleavage, A405). The class given is biochemical. The method, then:
Human plasma kallikrein (PK) was obtained from Haemtech Technologies (Essex Junction, Vt.). The enzymatic activity of PK was assayed using the synthetic peptide substrate H-D-Pro-Phe-Arg-pNA (Bachem, Inc., Switzerland) with the cleavage of the substrate by the enzyme resulting in an increase in A405, measured using a Molecular Devices Vmax Kinetic Microplate Reader. The uninhibited (control) activity of PK was determined by adding 190 μl of PK solution (1 nM in 0.05 M HEPES, pH 7.5, 0.01% Triton X-100) to 10 μl of H-D-Pro-Phe-Arg-pNA (2 mM in DMSO) in individual microtiter plate wells, mixed immediately by shaking, and the rate of increase in A405 determined over 120-180 sec. In parallel, compounds of the present invention were mixed in separate wells with the synthetic substrate to attain final concentrations of between 0.01-10 μM in the final 200 μl reaction mixture, and the reaction initiated by the addition of 190 μl of the PK solution.
as §1

A further test has as its system patients with HAE. To be noted: in vivo; cited from earlier work.
Another test concerns rat models of arthritis. Conditions: in vivo; cited from earlier work.
The subject of another test is sepsis patients. To be noted: in vivo; cited from earlier work.
The test system of another test is mouse model of MCAO. To be noted: in vivo; cited from earlier work.
Test [3] concerns LPS or bacterial induced sepsis in animals. To be noted: in vivo; cited from earlier work.
The mark [4] stands for this setting: apparent inhibition constant, 1 nM PK, pH 7.5, read-out: PK Kiapp.
Setting [5] is: purified human PK, highest concentration tested 10 μM, read-out: Ki PK.

T3 sequence (P03952 391-638 limits assumed): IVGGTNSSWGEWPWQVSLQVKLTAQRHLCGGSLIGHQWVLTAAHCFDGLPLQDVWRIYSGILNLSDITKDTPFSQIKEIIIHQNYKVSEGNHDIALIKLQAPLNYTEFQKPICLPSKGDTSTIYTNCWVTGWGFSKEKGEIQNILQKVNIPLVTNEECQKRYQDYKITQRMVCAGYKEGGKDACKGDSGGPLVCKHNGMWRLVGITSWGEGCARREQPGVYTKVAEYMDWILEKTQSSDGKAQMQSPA
T3 sequence (P03952 20-390 partner limits assumed): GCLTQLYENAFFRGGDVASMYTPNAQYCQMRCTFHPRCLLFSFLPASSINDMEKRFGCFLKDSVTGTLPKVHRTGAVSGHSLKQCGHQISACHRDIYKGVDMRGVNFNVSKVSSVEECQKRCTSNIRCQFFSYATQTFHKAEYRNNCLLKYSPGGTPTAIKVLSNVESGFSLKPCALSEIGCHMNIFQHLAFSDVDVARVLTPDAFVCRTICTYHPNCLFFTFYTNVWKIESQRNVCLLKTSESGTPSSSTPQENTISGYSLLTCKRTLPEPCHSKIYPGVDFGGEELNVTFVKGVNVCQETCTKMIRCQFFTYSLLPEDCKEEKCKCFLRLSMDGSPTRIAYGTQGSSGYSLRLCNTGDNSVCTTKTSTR
Chain of FXIa (P03951 388-625 limits assumed): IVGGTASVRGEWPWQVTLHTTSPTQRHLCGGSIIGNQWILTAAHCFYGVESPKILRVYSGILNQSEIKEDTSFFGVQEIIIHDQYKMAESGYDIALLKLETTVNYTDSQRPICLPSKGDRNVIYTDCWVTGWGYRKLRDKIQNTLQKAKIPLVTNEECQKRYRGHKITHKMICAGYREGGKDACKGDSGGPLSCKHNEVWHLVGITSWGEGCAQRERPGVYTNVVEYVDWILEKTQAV
Chain of FXIa (P03951 19-387 partner limits assumed): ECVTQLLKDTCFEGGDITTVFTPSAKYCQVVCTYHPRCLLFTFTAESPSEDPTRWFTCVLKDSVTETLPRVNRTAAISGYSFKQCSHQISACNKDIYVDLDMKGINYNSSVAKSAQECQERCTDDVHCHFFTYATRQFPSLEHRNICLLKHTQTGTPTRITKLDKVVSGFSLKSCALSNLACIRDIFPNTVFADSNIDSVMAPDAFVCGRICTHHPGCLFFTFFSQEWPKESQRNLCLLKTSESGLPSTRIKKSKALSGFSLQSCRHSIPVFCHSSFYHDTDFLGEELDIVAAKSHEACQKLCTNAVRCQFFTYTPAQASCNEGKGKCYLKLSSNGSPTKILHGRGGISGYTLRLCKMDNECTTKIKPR
Chain of FXa (P00742 235-488 limits assumed): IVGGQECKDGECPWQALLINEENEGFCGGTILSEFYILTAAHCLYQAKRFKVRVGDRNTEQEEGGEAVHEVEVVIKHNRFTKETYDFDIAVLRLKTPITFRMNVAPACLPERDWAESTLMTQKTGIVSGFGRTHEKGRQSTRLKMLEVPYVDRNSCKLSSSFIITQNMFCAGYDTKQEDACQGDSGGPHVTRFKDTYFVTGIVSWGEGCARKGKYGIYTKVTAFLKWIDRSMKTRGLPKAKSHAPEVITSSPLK
Chain of FXa (P00742 41-179 partner limits assumed): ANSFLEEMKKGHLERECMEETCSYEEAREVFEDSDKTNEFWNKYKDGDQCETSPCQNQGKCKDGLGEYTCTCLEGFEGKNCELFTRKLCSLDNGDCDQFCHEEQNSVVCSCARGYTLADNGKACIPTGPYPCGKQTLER
T2 sequence (P00747 581-810 limits assumed, species assumed): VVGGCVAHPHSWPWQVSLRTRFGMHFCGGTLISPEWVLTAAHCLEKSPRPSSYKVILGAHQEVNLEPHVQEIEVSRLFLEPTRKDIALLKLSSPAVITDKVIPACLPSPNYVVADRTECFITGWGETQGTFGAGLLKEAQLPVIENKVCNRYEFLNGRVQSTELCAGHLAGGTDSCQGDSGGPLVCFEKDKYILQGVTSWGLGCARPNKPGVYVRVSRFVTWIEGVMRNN
T2 sequence (P00747 97-580 partner limits assumed, species assumed): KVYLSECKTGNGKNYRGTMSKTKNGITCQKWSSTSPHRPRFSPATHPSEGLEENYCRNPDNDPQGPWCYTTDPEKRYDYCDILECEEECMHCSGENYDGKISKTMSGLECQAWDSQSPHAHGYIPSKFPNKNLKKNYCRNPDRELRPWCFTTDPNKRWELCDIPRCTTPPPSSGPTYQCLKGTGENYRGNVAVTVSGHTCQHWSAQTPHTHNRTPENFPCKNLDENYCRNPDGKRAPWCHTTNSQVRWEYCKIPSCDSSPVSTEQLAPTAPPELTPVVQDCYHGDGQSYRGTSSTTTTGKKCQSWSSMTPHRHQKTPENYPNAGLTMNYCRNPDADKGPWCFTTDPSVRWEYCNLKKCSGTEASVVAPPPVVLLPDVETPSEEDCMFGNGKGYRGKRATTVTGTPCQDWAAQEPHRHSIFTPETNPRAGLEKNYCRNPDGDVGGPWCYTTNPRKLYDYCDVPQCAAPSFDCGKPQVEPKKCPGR

With `N=C(N)c1ccc(CNC(=O)c2cnn(Cc3ccccc3)c2)cc1` [ASP-440, 1-Benzyl-1H-pyrazole-4-carboxylic acid 4-carbamimidoyl-benzylamide], the Ki at FXIa is greater than 10 µM; at FXIIa, greater than 10 µM; on Plasmin it was greater than 10 µM; on Thrombin it was greater than 10 µM; on FXa it was greater than 10 µM; in test [2] (setting [4]), 0.31 µM. For the same molecule, the Ki in test [2] (setting [5]) is 0.09 µM. Also, the “prolongs time to coagulation” value in test [1] (compound 10 μM) amounted to 36%.
Consider `Cc1cc(C(=O)NCc2ccc(C(=N)N)cc2)c(C)n1Cc1ccncc1` [ASP-465, 2,5-Dimethyl-1-pyridin-4-ylmethyl-1H-pyrrole-3-carboxylic acid 4-carbamimidoyl-benzylamide], for which the Ki at FXIa is greater than 10 µM; on FXIIa it was greater than 10 µM; at Plasmin, greater than 10 µM; on Thrombin it was greater than 10 µM; at FXa, greater than 10 µM; in test [2] (setting [4]) it was 0.08 µM. In test [2] (setting [5]), the Ki is 0.03 µM. The “block of the plasmin-induced shortening of time to coagulation attributable to PK” value in test [1] (10 μM) is “almost completely blocks”. In addition, the “prolongs time to coagulation” value in test [1] (compound 3.3 or 10 μM) is given as 36-75%. Moreover, in [1] (same prolongation at 3.3 μM as ASP-440 at 10 μM), the “potency towards inhibiting plasmin-activated coagulation relative to ASP-440” value amounted to 3 fold. For the same molecule, the “potency (Ki) towards PK relative to ASP-440” value in test [2] (ratio of Ki values) worked out at 3 fold.
For the molecule `NC(N)=NCCC[C@@H](N)C(=O)N[C@@H](CCCN=C(N)N)C(=O)N1CCC[C@H]1C(=O)N1C[C@H](O)C[C@H]1C(=O)NCC(=O)N[C@@H](Cc1cccs1)C(=O)N[C@@H](CO)C(=O)N1Cc2ccccc2C[C@@H]1C(=O)N1[C@H](C(=O)N[C@@H](CCCN=C(N)N)C(=O)O)C[C@@H]2CCCC[C@@H]21` [Icatibant], the “treating HAE” value in the test with patients with HAE was “effective”.
Take `Cl.NCC1CCC(C(=O)N[C@@H](Cc2ccccc2)C(=O)Nc2ccc(CC(=O)O)cc2)CC1` (stereo partly drawn) [PKSI-527]: the joint swelling entry with rat models of arthritis is reported as “reduce”.

B1: C1-INH: a physiological inhibitor (protein, UniProt P05155 23-500, looked up)
Plasma protease C1 inhibitor: NPNATSSSSQDPESLQDRGEGKVATTVISKMLFVEPILEVSSLPTTNSTTNSATKITANTTDEPTTQPTTEPTTQPTIQPTQPTTQLPTDSPTQPTTGSFCPGPVTLCSDLESHSTEAVLGDALVDFSLKLYHAFSAMKKVETNMAFSPFSIASLLTQVLLGAGENTKTNLESILSYPKDFTCVHQALKGFTTKGVTSVSQIFHSPDLAIRDTFVNASRTLYSSSPRVLSNNSDANLELINTWVAKNTNNKISRLLDSLPSDTRLVLLNAIYLSAKWKTTFDPKKTRMEPFHFKNSVIKVPMMNSKKYPVAHFIDQTLKAKVGQLQLSHNLSLVILVPQNLKHRLEDMEQALSPSVFKAIMEKLEMSKFQPTLLTLPRIKVTTSQDMLSIMEKLEFFDFSYDLNLCGLTEDPDLQVSAMQHQTVLELTETGVEAAAASAISVARTLLVFEVQQPFLFVLWDQQHKFPVFMGRVYDPRA
B1: the “clinical outcome in sepsis patients” value in the test on sepsis patients is recorded as “Clinical improvement”. Also, the infarct size result with mouse model of MCAO is “reduced”. Besides, in test [3], the “vascular permeability in multiple organs and lesions” value is reported as “reduce”.
